{"source": "paper PMC10343464", "about": "“Identification and characterization of a novel aminoglycoside O-nucleotidyltransferase ANT(6)-If from Paenibacillus thiaminolyticus PATH554” (Frontiers in Microbiology, 2023)", "system": "T1, ANT(6)-If", "T1 construct": "full-length ORF (855 bp, TTG start codon); 284 residues; His6 tag removed with thrombin; likely homodimer by clear-native PAGE", "assay": "coupled UDP-glucose pyrophosphorylase / phosphoglucomutase / G6PDH assay, NADPH at […] nm", "type": "biochemical, Paenibacillus thiaminolyticus", "conditions": "1 mM ATP, 10 mM MgCl2, 50 mM HEPES pH 7.5; temperature not given", "data": [{"molecule": "CN[C@@H]1[C@H](O[C@H]2[C@H](O[C@H]3[C@H](O)[C@@H](O)[C@H](N=C(N)N)[C@@H](O)[C@@H]3N=C(N)N)O[C@@H](C)[C@]2(O)C=O)O[C@@H](CO)[C@H](O)[C@H]1O", "note": "[streptomycin]", "values": [{"measurement": "Km", "value": 12.4, "unit": "µM"}]}]}
